Data reported in patent publication US8192962B2, “Processes for detecting toxic substances” (Daikin Industries, Ltd., priority 2001, dated 2012).

Tested on: Metabolism protein genes
Test: DNA chip mRNA expression in yeast, metabolism protein genes (Table 7)
Format: cell-based, Saccharomyces cerevisiae S288C
Procedure, shortened: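 Measured as treated-to-untreated fluorescence ratio on a full-genome yeast DNA chip. Cells (S288C, YPD, 25° C.) were exposed in log phase for two hours to one chemical, dosed to curb growth without killing.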

Oc1cc(Cl)c(Cl)cc1Cl [(6), 2,4,5-trichlorophenol]
The level of expressed mRNA in the presence of chemical substance/The level of expressed mRNA in the absence of chemical substance (yeast gene YKL035W): 1.2 | level of expressed mRNA in the presence/in the absence of chemical substance (yeast gene YKL060C): 1.3 | The level of expressed mRNA in the presence of chemical substance/The level of expressed mRNA in the absence of chemical substance (yeast gene YKL091C): 2.2 | The level of expressed mRNA in the presence of chemical substance/The level of expressed mRNA in the absence of chemical substance (yeast gene YKL104C): 0.9 | level of expressed mRNA in the presence/in the absence of chemical substance (yeast gene YKL148C): 0.5 | The level of expressed mRNA in the presence of chemical substance/The level of expressed mRNA in the absence of chemical substance (yeast gene YKL152C): 1.6 | level of expressed mRNA in the presence/in the absence of chemical substance (yeast gene YKL157W): 1.5 | The level of expressed mRNA in the presence of chemical substance/The level of expressed mRNA in the absence of chemical substance (yeast gene YKL213C): 1.0 | The level of expressed mRNA in the presence of chemical substance/The level of expressed mRNA in the absence of chemical substance (yeast gene YKL215C): 2.1 | The level of expressed mRNA in the presence of chemical substance/The level of expressed mRNA in the absence of chemical substance (yeast gene YKL218C): 3.6 | level of expressed mRNA in the presence/in the absence of chemical substance (yeast gene YKR034W): 0.9 | The level of expressed mRNA in the presence of chemical substance/The level of expressed mRNA in the absence of chemical substance (yeast gene YKR039W): 2.8 | The level of expressed mRNA in the presence of chemical substance/The level of expressed mRNA in the absence of chemical substance (yeast gene YLL058W): 1.4 | level of expressed mRNA in the presence/in the absence of chemical substance (yeast gene YLR006C): 0.9 | level of expressed mRNA in the presence/in the absence of chemical substance (yeast gene YLR044C): 1.5 | level of expressed mRNA in the presence/in the absence of chemical substance (yeast gene YLR056W): 1.2 | level of expressed mRNA in the presence/in the absence of chemical substance (yeast gene YLR058C): 0.9 | level of expressed mRNA in the presence/in the absence of chemical substance (yeast gene YLR081W): 0.9 | level of expressed mRNA in the presence/in the absence of chemical substance (yeast gene YLR089C): 1.5 | The level of expressed mRNA in the presence of chemical substance/The level of expressed mRNA in the absence of chemical substance (yeast gene YLR142W): 3.1 | The level of expressed mRNA in the presence of chemical substance/The level of expressed mRNA in the absence of chemical substance (yeast gene YLR180W): 1.2 | The level of expressed mRNA in the presence of chemical substance/The level of expressed mRNA in the absence of chemical substance (yeast gene YLR273C): 1.2 | level of expressed mRNA in the presence/in the absence of chemical substance (yeast gene YLR284C): 0.9 | The level of expressed mRNA in the presence of chemical substance/The level of expressed mRNA in the absence of chemical substance (yeast gene YLR299W): 0.9 | The level of expressed mRNA in the presence of chemical substance/The level of expressed mRNA in the absence of chemical substance (yeast gene YLR300W): 1.1 | level of expressed mRNA in the presence/in the absence of chemical substance (yeast gene YLR304C): 1.9 | The level of expressed mRNA in the presence of chemical substance/The level of expressed mRNA in the absence of chemical substance (yeast gene YLR307W): 1.2 | The level of expressed mRNA in the presence of chemical substance/The level of expressed mRNA in the absence of chemical substance (yeast gene YLR348C): 1.9 | level of expressed mRNA in the presence/in the absence of chemical substance (yeast gene YLR354C): 1.5 | level of expressed mRNA in the presence/in the absence of chemical substance (yeast gene YLR372W): 0.5 | level of expressed mRNA in the presence/in the absence of chemical substance (yeast gene YML022W): 0.8 | The level of expressed mRNA in the presence of chemical substance/The level of expressed mRNA in the absence of chemical substance (yeast gene YML054C): 1.8 | The level of expressed mRNA in the presence of chemical substance/The level of expressed mRNA in the absence of chemical substance (yeast gene YML070W): 2.2 | The level of expressed mRNA in the presence of chemical substance/The level of expressed mRNA in the absence of chemical substance (yeast gene YML100W): 2.8 | The level of expressed mRNA in the presence of chemical substance/The level of expressed mRNA in the absence of chemical substance (yeast gene YML110C): 2.6 | The level of expressed mRNA in the presence of chemical substance/The level of expressed mRNA in the absence of chemical substance (yeast gene YMR008C): 1.7 | level of expressed mRNA in the presence/in the absence of chemical substance (yeast gene YMR011W): 0.6 | level of expressed mRNA in the presence/in the absence of chemical substance (yeast gene YMR015C): 1.3 | The level of expressed mRNA in the presence of chemical substance/The level of expressed mRNA in the absence of chemical substance (yeast gene YMR020W): 1.6 | level of expressed mRNA in the presence/in the absence of chemical substance (yeast gene YMR083W): 1.8 | The level of expressed mRNA in the presence of chemical substance/The level of expressed mRNA in the absence of chemical substance (yeast gene YMR105C): 2.8 | The level of expressed mRNA in the presence of chemical substance/The level of expressed mRNA in the absence of chemical substance (yeast gene YMR189W): 1.9 | level of expressed mRNA in the presence/in the absence of chemical substance (yeast gene YMR205C): 1.2 | The level of expressed mRNA in the presence of chemical substance/The level of expressed mRNA in the absence of chemical substance (yeast gene YMR250W): 4.5 | level of expressed mRNA in the presence/in the absence of chemical substance (yeast gene YMR261C): 0.6 | The level of expressed mRNA in the presence of chemical substance/The level of expressed mRNA in the absence of chemical substance (yeast gene YMR271C): 4.2 | The level of expressed mRNA in the presence of chemical substance/The level of expressed mRNA in the absence of chemical substance (yeast gene YMR272C): 2.6 | The level of expressed mRNA in the presence of chemical substance/The level of expressed mRNA in the absence of chemical substance (yeast gene YMR296C): 0.4 | level of expressed mRNA in the presence/in the absence of chemical substance (yeast gene YMR323W): 0.4 | The level of expressed mRNA in the presence of chemical substance/The level of expressed mRNA in the absence of chemical substance (yeast gene YNL012W): 1.7 | level of expressed mRNA in the presence/in the absence of chemical substance (yeast gene YNL025C): 0.5 | The level of expressed mRNA in the presence of chemical substance/The level of expressed mRNA in the absence of chemical substance (yeast gene YNL037C): 2.8 | The level of expressed mRNA in the presence of chemical substance/The level of expressed mRNA in the absence of chemical substance (yeast gene YNL045W): 2.2 | The level of expressed mRNA in the presence of chemical substance/The level of expressed mRNA in the absence of chemical substance (yeast gene YNL104C): 0.8 | The level of expressed mRNA in the presence of chemical substance/The level of expressed mRNA in the absence of chemical substance (yeast gene YNL106C): 1.0 | The level of expressed mRNA in the presence of chemical substance/The level of expressed mRNA in the absence of chemical substance (yeast gene YNL169C): 1.4 | level of expressed mRNA in the presence/in the absence of chemical substance (yeast gene YNL192W): 0.6 | The level of expressed mRNA in the presence of chemical substance/The level of expressed mRNA in the absence of chemical substance (yeast gene YNL231C): 1.8 | The level of expressed mRNA in the presence of chemical substance/The level of expressed mRNA in the absence of chemical substance (yeast gene YNL322C): 1.1 | The level of expressed mRNA in the presence of chemical substance/The level of expressed mRNA in the absence of chemical substance (yeast gene YNL331C): 1.8 | The level of expressed mRNA in the presence of chemical substance/The level of expressed mRNA in the absence of chemical substance (yeast gene YNL332W): 1.1 | The level of expressed mRNA in the presence of chemical substance/The level of expressed mRNA in the absence of chemical substance (yeast gene YNR019W): 1.3 | The level of expressed mRNA in the presence of chemical substance/The level of expressed mRNA in the absence of chemical substance (yeast gene YNR033W): 1.6 | The level of expressed mRNA in the presence of chemical substance/The level of expressed mRNA in the absence of chemical substance (yeast gene YNR059W): 0.8 | The level of expressed mRNA in the presence of chemical substance/The level of expressed mRNA in the absence of chemical substance (yeast gene YOL058W): 0.8 | level of expressed mRNA in the presence/in the absence of chemical substance (yeast gene YOL086C): 1.7 | level of expressed mRNA in the presence/in the absence of chemical substance (yeast gene YOL108C): 0.9 | level of expressed mRNA in the presence/in the absence of chemical substance (yeast gene YOL116W): 0.7 | The level of expressed mRNA in the presence of chemical substance/The level of expressed mRNA in the absence of chemical substance (yeast gene YOL126C): 1.5 | The level of expressed mRNA in the presence of chemical substance/The level of expressed mRNA in the absence of chemical substance (yeast gene YOL143C): 3.5 | The level of expressed mRNA in the presence of chemical substance/The level of expressed mRNA in the absence of chemical substance (yeast gene YOL153C): 1.9 | level of expressed mRNA in the presence/in the absence of chemical substance (yeast gene YOL156W): 1.2 | The level of expressed mRNA in the presence of chemical substance/The level of expressed mRNA in the absence of chemical substance (yeast gene YOL165C): 1.7 | level of expressed mRNA in the presence/in the absence of chemical substance (yeast gene YOR002W): 1.1 | level of expressed mRNA in the presence/in the absence of chemical substance (yeast gene YOR085W): 0.6 | The level of expressed mRNA in the presence of chemical substance/The level of expressed mRNA in the absence of chemical substance (yeast gene YOR099W): 0.9 | level of expressed mRNA in the presence/in the absence of chemical substance (yeast gene YOR103C): 1.0 | level of expressed mRNA in the presence/in the absence of chemical substance (yeast gene YOR108W): 1.6 | level of expressed mRNA in the presence/in the absence of chemical substance (yeast gene YOR128C): 1.0 | The level of expressed mRNA in the presence of chemical substance/The level of expressed mRNA in the absence of chemical substance (yeast gene YOR130C): 1.6 | level of expressed mRNA in the presence/in the absence of chemical substance (yeast gene YOR142W): 1.6 | level of expressed mRNA in the presence/in the absence of chemical substance (yeast gene YOR176W): 0.9 | level of expressed mRNA in the presence/in the absence of chemical substance (yeast gene YOR178C): 2.7 | level of expressed mRNA in the presence/in the absence of chemical substance (yeast gene YOR251C): 0.9 | The level of expressed mRNA in the presence of chemical substance/The level of expressed mRNA in the absence of chemical substance (yeast gene YOR336W): 1.7 | The level of expressed mRNA in the presence of chemical substance/The level of expressed mRNA in the absence of chemical substance (yeast gene YOR347C): 0.9 | level of expressed mRNA in the presence/in the absence of chemical substance (yeast gene YOR348C): 0.7 | The level of expressed mRNA in the presence of chemical substance/The level of expressed mRNA in the absence of chemical substance (yeast gene YPL017C): 1.5 | level of expressed mRNA in the presence/in the absence of chemical substance (yeast gene YPL028W): 1.2 | level of expressed mRNA in the presence/in the absence of chemical substance (yeast gene YPL057C): 0.6 | level of expressed mRNA in the presence/in the absence of chemical substance (yeast gene YPL135W): 1.3 | level of expressed mRNA in the presence/in the absence of chemical substance (yeast gene YPL148C): 0.6 | level of expressed mRNA in the presence/in the absence of chemical substance (yeast gene YPR113W): 1.1 | The level of expressed mRNA in the presence of chemical substance/The level of expressed mRNA in the absence of chemical substance (yeast gene YPR160W): 4.5 | level of expressed mRNA in the presence/in the absence of chemical substance (yeast gene YPR165W): 1.8 | The level of expressed mRNA in the presence of chemical substance/The level of expressed mRNA in the absence of chemical substance (yeast gene YPR167C): 2.6 | level of expressed mRNA in the presence/in the absence of chemical substance (yeast gene YPR183W): 1.2
